Test results reported in publication PMC8590616 (European Journal of Pharmacology, 2021).
“And” between values parts separate entries of the source, which are not always exact repeats. Identical values can stand only once. Like-named read-outs stand apart in the source and are kept apart here.

Assays:
[1] = cited from earlier work
[2] = test system: IKr; conditions: read-out: IKr IC50; Xenopus laevis oocytes ref Sánchez-Chapula et al. (2002); cited from earlier work
[3] = target: hKv7.1+hMinK (Homo sapiens, UniProt P51787); assay: IKs double-step voltage protocol, HEK293 cells; assay type: cell-based; conditions: for effect on plateau IKs level: highest concentration applied (100 μM)
Sequence of hKv7.1+hMinK (P51787 whole entry): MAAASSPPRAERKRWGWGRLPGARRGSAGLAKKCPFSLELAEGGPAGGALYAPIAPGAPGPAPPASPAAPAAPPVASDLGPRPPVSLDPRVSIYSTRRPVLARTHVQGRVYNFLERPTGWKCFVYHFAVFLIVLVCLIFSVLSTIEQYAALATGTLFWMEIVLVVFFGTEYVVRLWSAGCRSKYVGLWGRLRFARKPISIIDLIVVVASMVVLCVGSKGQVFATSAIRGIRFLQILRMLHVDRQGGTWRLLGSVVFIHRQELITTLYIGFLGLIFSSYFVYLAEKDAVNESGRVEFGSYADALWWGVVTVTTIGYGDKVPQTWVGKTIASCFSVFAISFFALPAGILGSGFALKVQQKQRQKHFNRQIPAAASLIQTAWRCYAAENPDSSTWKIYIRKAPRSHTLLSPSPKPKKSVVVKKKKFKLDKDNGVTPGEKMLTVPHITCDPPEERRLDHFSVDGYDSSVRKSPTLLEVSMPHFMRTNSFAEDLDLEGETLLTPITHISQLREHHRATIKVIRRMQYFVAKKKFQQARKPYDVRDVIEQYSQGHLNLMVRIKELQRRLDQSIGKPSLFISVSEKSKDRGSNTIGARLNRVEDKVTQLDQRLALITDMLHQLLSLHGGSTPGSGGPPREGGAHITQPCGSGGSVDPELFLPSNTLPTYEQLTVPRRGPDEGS

[4] = test system: IK1; conditions: read-out: IK1 IC50; HEK293 ref Noujaim et al. (2011); cited from earlier work
[5] = test system: If; conditions: read-out: If IC50, cited from earlier work
[6] = test system: peak L-type Ca2+ current (ICaL) in Pluricyte cardiomyocytes; assay: hiPSC-CM β-escin-perforated voltage-clamp: peak ICaL; assay type: cell-based; conditions: Homo sapiens, Cardiomyocyte; for IC50: read-out: ICaL IC50
[7] = test system: INa peak; conditions: read-out: INa peak IC50; CHO, PT ref Delaunois et al. (2021); cited from earlier work
[8] = target: T1, hKir2.1 (Homo sapiens, UniProt P63252); conditions: HEK-293T, read-out: IK1 (hKir2.1) IC50
T1 sequence (P63252 1-427): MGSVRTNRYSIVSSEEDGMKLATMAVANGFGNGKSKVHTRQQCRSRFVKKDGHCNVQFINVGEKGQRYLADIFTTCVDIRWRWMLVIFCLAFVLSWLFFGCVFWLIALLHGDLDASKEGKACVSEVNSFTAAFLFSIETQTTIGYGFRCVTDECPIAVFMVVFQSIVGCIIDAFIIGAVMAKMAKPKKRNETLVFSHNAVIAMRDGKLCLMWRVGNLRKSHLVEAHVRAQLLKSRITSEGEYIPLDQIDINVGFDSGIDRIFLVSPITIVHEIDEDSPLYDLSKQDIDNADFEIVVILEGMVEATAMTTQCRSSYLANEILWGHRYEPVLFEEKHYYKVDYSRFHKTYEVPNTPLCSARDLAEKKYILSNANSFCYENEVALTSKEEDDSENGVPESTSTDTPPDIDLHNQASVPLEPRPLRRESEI

[9] = target: T2, hERG1 (Homo sapiens, UniProt Q12809); assay: Manual patch-clamp, standard 2-step hERG protocol at PT; assay type: cell-based
T2 sequence (Q12809 whole entry): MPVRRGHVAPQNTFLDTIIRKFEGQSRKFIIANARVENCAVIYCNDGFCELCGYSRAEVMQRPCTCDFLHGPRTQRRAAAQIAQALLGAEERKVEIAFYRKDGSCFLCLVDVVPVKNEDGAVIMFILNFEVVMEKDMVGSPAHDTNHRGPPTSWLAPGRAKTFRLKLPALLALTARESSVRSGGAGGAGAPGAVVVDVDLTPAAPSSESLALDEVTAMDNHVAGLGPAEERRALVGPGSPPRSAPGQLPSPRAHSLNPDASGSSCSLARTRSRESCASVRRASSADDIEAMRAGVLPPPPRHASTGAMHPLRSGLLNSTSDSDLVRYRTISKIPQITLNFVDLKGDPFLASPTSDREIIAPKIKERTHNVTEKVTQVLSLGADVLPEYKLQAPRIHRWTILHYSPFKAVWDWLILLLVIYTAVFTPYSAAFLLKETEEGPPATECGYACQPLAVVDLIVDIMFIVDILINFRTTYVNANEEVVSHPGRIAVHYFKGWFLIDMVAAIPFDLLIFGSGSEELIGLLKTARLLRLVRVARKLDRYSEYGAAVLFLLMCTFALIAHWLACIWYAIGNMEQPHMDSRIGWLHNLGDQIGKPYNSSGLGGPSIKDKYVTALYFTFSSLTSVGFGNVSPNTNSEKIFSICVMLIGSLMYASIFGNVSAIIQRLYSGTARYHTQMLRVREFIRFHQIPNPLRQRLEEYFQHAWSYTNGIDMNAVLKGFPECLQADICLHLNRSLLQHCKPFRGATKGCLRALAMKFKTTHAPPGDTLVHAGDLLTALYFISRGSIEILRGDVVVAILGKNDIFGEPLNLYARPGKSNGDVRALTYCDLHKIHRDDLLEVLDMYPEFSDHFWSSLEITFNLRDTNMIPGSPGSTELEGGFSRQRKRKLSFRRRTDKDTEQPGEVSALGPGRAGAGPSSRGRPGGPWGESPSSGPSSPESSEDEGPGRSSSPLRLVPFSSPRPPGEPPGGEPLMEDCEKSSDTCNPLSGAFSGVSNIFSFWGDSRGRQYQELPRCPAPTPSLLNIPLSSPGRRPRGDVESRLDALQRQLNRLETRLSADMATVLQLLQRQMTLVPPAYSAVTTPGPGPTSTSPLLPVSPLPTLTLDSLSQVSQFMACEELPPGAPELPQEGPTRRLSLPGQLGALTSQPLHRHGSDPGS

[10] = target: T3, hNav1.5 (Homo sapiens, UniProt Q14524); assay: Peak INa at PT, manual patch-clamp, HEK293 cells; assay type: cell-based; conditions: for INa peak Hill coefficient nH: PT
T3 sequence (Q14524 whole entry): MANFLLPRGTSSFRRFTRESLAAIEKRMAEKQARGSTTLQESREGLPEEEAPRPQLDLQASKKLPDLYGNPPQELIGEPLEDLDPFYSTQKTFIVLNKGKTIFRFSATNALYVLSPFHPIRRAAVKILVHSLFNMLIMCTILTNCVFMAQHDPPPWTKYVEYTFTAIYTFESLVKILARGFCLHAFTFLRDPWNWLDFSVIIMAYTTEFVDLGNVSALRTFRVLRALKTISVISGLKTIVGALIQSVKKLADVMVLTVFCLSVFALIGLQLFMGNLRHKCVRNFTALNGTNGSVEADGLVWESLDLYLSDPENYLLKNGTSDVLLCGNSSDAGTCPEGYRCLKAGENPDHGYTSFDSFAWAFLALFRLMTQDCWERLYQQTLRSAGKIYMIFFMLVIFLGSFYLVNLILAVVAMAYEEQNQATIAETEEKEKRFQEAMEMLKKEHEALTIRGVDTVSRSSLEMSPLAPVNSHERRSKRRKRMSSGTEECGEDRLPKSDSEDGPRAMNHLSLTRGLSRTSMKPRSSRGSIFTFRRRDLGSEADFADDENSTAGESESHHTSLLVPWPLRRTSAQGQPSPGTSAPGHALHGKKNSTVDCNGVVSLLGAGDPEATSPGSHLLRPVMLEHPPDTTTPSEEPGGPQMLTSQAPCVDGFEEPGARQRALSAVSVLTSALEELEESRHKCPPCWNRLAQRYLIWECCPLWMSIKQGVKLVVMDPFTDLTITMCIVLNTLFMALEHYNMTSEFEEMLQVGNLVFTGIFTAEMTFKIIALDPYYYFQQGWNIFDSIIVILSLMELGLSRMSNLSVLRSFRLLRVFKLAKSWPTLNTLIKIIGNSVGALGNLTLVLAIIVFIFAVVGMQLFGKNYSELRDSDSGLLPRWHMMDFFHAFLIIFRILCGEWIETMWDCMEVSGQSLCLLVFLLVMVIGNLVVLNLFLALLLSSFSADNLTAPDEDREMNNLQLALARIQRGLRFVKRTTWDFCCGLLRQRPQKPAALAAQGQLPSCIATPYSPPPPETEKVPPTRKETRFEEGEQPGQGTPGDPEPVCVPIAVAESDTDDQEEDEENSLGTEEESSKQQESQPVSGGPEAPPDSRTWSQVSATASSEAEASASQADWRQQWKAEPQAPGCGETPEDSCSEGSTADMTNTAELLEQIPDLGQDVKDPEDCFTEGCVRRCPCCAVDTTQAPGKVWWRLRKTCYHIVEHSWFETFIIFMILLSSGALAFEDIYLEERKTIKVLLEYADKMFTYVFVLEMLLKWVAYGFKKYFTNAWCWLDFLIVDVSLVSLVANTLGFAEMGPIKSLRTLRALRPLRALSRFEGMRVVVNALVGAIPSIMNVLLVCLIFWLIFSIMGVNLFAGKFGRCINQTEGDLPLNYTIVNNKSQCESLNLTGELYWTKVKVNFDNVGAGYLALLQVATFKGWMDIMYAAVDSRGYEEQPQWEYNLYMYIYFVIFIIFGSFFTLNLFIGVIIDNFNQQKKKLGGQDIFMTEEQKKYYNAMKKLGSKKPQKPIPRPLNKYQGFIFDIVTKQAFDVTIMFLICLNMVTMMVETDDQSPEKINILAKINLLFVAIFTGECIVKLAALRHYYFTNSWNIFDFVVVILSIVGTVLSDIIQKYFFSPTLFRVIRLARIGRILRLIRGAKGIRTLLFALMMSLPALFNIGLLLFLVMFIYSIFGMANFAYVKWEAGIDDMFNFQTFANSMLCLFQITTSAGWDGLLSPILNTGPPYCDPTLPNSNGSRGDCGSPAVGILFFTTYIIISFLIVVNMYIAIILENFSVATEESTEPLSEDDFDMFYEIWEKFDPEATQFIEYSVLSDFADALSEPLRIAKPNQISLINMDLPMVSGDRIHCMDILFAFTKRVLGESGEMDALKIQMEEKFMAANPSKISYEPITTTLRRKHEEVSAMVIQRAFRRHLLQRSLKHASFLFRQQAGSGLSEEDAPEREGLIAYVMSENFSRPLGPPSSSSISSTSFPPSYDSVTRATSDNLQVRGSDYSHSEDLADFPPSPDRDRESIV

[11] = test system: hERG (peak IKr); assay: hiPSC-CM β-escin-perforated voltage-clamp: peak IKr; assay type: cell-based, human; conditions: human
[12] = test system: peak hERG current (IKr) in Pluricyte cardiomyocytes; assay: as above; assay type: cell-based, human; conditions: 5 μM; hiPSC-CM; individual experiments and average ± SD
[13] = test system: IKr; conditions: read-out: IKr IC50, cited from earlier work
[14] = test system: INa peak; conditions: read-out: INa peak IC50; cat Purkinje fibers ref Sánchez-Chapula et al. (2001); cited from earlier work
[15] = test system: ICaL; conditions: read-out: ICaL IC50; HEK293 ref Jordaan et al. (2021); cited from earlier work
[16] = test system: ICaL; conditions: read-out: ICaL IC50; CHO, RT ref Delaunois et al. (2021); cited from earlier work
[17] = test system: INa peak; conditions: read-out: INa peak IC50; HEK293 ref Jordaan et al. (2021); cited from earlier work
[18] = test system: IKr; conditions: read-out: IKr IC50, cited from earlier work; remark: listed apart in the source
[19] = test system: INa late; conditions: read-out: INa late IC50, CHO, cited from earlier work
[20] = target: T2, hERG1; assay: Manual whole-cell patch-clamp, standard 2-step hERG protocol at RT, HEK293T; conditions: for Hill coefficient nH, hERG inhibition: manual patch-clamp, RT
[21] = target: T2, hERG1; assay: Automated patch-clamp; conditions: for Hill coefficient nH, hERG inhibition: automated patch-clamp, RT
[22] = target: T3, hNav1.5; assay: Late INa in presence of ATX-II 20 nM at RT, HEK293 cells; conditions: for IC50: INa late IC50, hNav1.5, ATX-II 20 nM, end of tail current at 0 mV
[23] = test system: Ito; conditions: read-out: Ito IC50; rat ventricular myocytes ref Wagner et al. (2010); cited from earlier work
[24] = test system: steady funny current (If) in Pluricyte cardiomyocytes; assay: hiPSC-CM β-escin-perforated voltage-clamp: steady funny current; assay type: cell-based; conditions: Homo sapiens, Cardiomyocyte, read-out: If IC50
[25] = test system: IKs; conditions: human atrial myocytes ref Borsini et al. (2012), cited from earlier work
[26] = target: T3, hNav1.5; assay: Peak INa in presence of ATX-II 20 nM at RT, HEK293 cells; conditions: for IC50: INa peak IC50, hNav1.5, ATX-II 20 nM, Hill fit
[27] = test system: ICaL; conditions: read-out: ICaL IC50; cat Purkinje fibers ref Sánchez-Chapula et al. (2001); cited from earlier work
[28] = test system: peak voltage-dependent Na+ current (INa) in Pluricyte cardiomyocytes; assay: hiPSC-CM β-escin-perforated voltage-clamp: peak INa; assay type: cell-based; conditions: Homo sapiens, Cardiomyocyte; for IC50: read-out: peak INa IC50 in hiPSC-CM
[29] = test system: INa peak; conditions: human atrial myocytes ref Borsini et al. (2012), cited from earlier work
[30] = test system: ICaL; conditions: cited from earlier work
[31] = test system: IKr; conditions: cited from earlier work
[32] = standard 12-compounds panel ref Dutta et al., (2017)
[33] = HEK293, RT ref Delaunois et al. (2021)
[34] = read-out: peak ICaL, % of control values
[35] = CHO, PT ref Delaunois et al. (2021)
[36] = CHO, PT ref TeBay et al. (2021)
[37] = read-out: peak INa, % of control values
[38] = 3 μM, guinea pig SAN cells ref Capel et al. (2015)

SMILES: CN(C)CCCN1c2ccccc2Sc2ccc(Cl)cc21 [Chlorpromazine]
- Cmax [1, 32]: 38 nM

SMILES: COc1ccc([C@@H]2Sc3ccccc3N(CCN(C)C)C(=O)[C@@H]2OC(C)=O)cc1 [Diltiazem]
- Cmax [1, 32]: 122 nM

SMILES: Cc1cccc(C)c1OCC(C)N (stereo not shown) [Mexiletine]
- Cmax [1, 32]: 4130 nM

SMILES: Cc1nccn1CC1CCc2c(c3ccccc3n2C)C1=O (stereo not shown) [Ondansetron]
- Cmax [1, 32]: 139 nM

SMILES: COc1ccccc1OCC(O)CN1CCN(CC(=O)Nc2c(C)cccc2C)CC1 (stereo not shown) [Ranolazine]
- Cmax [1, 32]: 1950 nM

SMILES: CC(C)NCC(O)c1ccc(NS(C)(=O)=O)cc1 (stereo not shown) [Sotalol]
- Cmax [1, 32]: 14700 nM

SMILES: CC(C)(C)c1ccc(C(O)CCCN2CCC(C(O)(c3ccccc3)c3ccccc3)CC2)cc1 (stereo not shown) [Terfenadine]
- Cmax [1, 32]: 4 nM

SMILES: CCN(CC)CCCC(C)Nc1ccnc2cc(Cl)ccc12 (stereo not shown) [chloroquine]
- IC50 [2]: 8.4 µM
- IC50 [3]: > 100 µM
- effect on plateau IKs level [3]: only slightly inhibited
- IC50 [4]: 1.2 µM
- IC50 [5, 33]: 228 µM
- IC50 [6]: 30.7 µM
- activity at 5 µM [6, 34]: 86 ± 9%
- IC50 [7]: 14 µM
- potency estimated from few doses [8]: 5.86 µM
- Hill coefficient nH, hERG inhibition [9]: 1.25
- IC50 [10]: 39.3 µM
- INa peak Hill coefficient nH [10]: 0.97
- activity at 5 µM [11]: 37.2%
- potency estimated from few doses [11]: 2.96 µM
- peak IKr % inhibition [12]: 62.78 ± 11.12%
- IC50 ([13]; CHO ref Jordaan et al. (2021)): 7.77 µM
- IC50 [13, 35]: 1.03 µM
- IC50 [13, 36]: 1.47 µM
- IC50 [14]: 12.2 µM
- IC50 [15]: 3.05 µM
- IC50 [16]: 17.9 µM
- IC50 [17]: 8.48 µM
- IC50 ([18]; HEK293, RT ref Borsini et al. (2012)): 0.96 µM
- IC50 ([18]; HEK293, RT ref Traebert et al. (2004)): 2.5 µM
- IC50 ([19]; PT ref Delaunois et al. (2021)): 11.6 µM
- IC50 ([19]; RT ref Delaunois et al. (2021)): 109 µM
- Hill coefficient nH, hERG inhibition [20]: 0.90
- Hill coefficient nH, hERG inhibition [21]: 1.36
- Cmax ([1]; Table 2 ref Borsini et al. (2012)): 410 nM
- Cmax, maximal free plasma therapeutic concentration ([1]; usual doses ref Borsini et al., 2012): 0.41 µM
- INa late Hill coefficient nH [22]: 0.85
- IC50 [22]: 30.4 µM
- IC50 [23]: 4600 µM
- IC50 [24]: > 162 µM
- IKs % block ([25]; 10 μM): 8%
- IC50 ([25]; read-out: IKs IC50): 115 µM
- INa peak Hill coefficient nH [26]: 0.98
- IC50 [26]: 159 µM
- IC50 [27]: 21.2 µM
- IC50 [28]: 45 µM
- inhibition at 5 µM ([28]; read-out: peak INa average inhibition): 10%
- activity at 5 µM [28, 37]: 90 ± 12%
- INa peak % block ([29]; 30 μM): 42.6%
- IC50 ([29]; read-out: INa peak IC50): 40.4 µM

SMILES: CCN(CCO)CCCC(C)Nc1ccnc2cc(Cl)ccc12 (stereo not shown) [hydroxychloroquine]
- IC50 [3]: > 100 µM
- effect on plateau IKs level [3]: only slightly inhibited
- IC50 ([5]; HEK293, PT ref Delaunois et al. (2021)): > 300 µM
- IC50 [5, 33]: 372 µM
- IC50 [6]: 90 µM
- activity at 10 µM [6, 34]: 90 ± 12%
- IC50 [7]: 17 µM
- potency estimated from few doses [8]: 29.3 µM
- ICaL % block [30, 38]: 12%
- IC50 ([30]; read-out: ICaL IC50, guinea pig SAN cells, PT ref Capel et al. (2015)): 22 µM
- IC50 [10]: 42.4 µM
- INa peak Hill coefficient nH [10]: 1.02
- IC50 ([13]; CHO ref Jordaan et al. (2021)): 9.7 µM
- IC50 [13, 35]: 2.66 µM
- IC50 [13, 36]: 3.78 µM
- IC50 ([13]; CHO, RT ref Delaunois et al. (2021)): 6.97 µM
- IC50 [15]: 7.64 µM
- IC50 [16]: 66.3 µM
- IC50 [17]: > 300 µM
- IC50 ([19]; PT ref Delaunois et al. (2021)): 21.4 µM
- IC50 ([19]; RT ref Delaunois et al. (2021)): 92.9 µM
- IKr % block [31, 38]: 35%
- IC50 ([31]; read-out: IKr IC50, guinea pig SAN cells, PT ref Capel et al. (2015)): 5.6 µM
- IC50 [20]: 4.79 µM
- Hill coefficient nH, hERG inhibition [20]: 0.85
- IC50 [21]: 3.42 µM
- Hill coefficient nH, hERG inhibition [21]: 1.02
- Cmax ([1]; Table 2 ref Yao et al. (2020)): 495 nM
- Cmax, maximal free plasma therapeutic concentration ([1]; usual doses ref Yao et al., 2020): 0.495 μM and 215 ng/ml
- Cmax, maximal free plasma therapeutic concentration ([1]; usual doses ref Yao et al., 2020, listed as Hydroxychloroquine): 0.495 μM and 215 ng/ml
- INa late Hill coefficient nH [22]: 0.89
- IC50 [22]: 64.9 µM
- IC50 [24]: > 990 µM
- INa peak Hill coefficient nH [26]: 0.81
- IC50 [26]: 96.2 µM
- IC50 [28]: 52.5 µM
- activity at 10 µM [28, 37]: 84 ± 16%
